The text below walks through data of patent EP1286591B1, “TREATING SMOOTH MUSCLE HYP[…] (R)-OXYBUTYNIN AND (R)- DESETHYLOXYBUTYNIN” (Watson Pharmaceuticals, Inc., priority 2000, dated 2001).

Data set [1] is described as follows: Therapeutic effects compared with the racemates and optical antipodes. The following applies: compared to their corresponding racemates and their optical antipodes.
The nature of data set [2]: Tolerability in laboratory animals (acute toxicity in mice). The data set is classed as in vivo. The following applies: compared with the S(+)-isomer. As to the method: The experiments are carried out on conscious albino mice that are administered escalating doses of the test compounds intravenously or orally.
Data set [3] can be described thus: Cardiovascular depressing activity (cardiac side effect studies). The data set is classed as in vivo, guinea pigs. The following applies: unwanted side effect of racemic oxybutynin. On the procedure: Male guinea pigs (450-600 g) are anesthetized with freshly prepared dialurethane sodium. The jugular vein is catheterized for iv administration of test drugs and the trachea is exposed and cannulated. Subdermal electrodes are positioned for Lead II electrocardiogram recording, monitored on a Grass Polygraph recorder, set at a paper speed of 50 mm/sec. The animals are allowed to stabilize for 30 minute after completion of surgery, and three baseline EKG recordings are then made at 10-minute intervals. The animals are then given a dose of the test compound or vehicle as an intravenous infusion over 30 min. EKG recordings are used to determine QT intervals and heart rates. To compensate for variations in heart rates, QTc intervals are calculated from QT- and RR-intervals as known to those skilled in the art. Prolongation of QTc is indicative of a prolonged action potential, caused by an inhibition of the delayed rectifier potassium channel. Prolongation of QTc is the known cause of Torsades de Pointes ventricular fibrillation by drugs such as terodiline, terfenadine and astemizole (now withdrawn from the market).

SMILES strings stand for the structures.

On to `CCNCC#CCOC(=O)[C@](O)(c1ccccc1)C1CCCCC1` [R(-)-isomer of desethyloxybutynin, R(-)-4-ethylamino-2-butynyl cyclohexylphenyl-glycolate], for which the therapeutic effects result in data set [1] is recorded as “superior therapeutic effects”.
For the compound `CCN(CC)CC#CCOC(=O)[C@](O)(c1ccccc1)C1CCCCC1` [R(-)-isomer of oxybutynin, R(-)-4-diethylamino-2-butynyl_-cyclohexyl-_-hydroxy-benzeneacetate], the “tolerated when given to laboratory animals” value in data set [2] is reported as “much better tolerated than the S(+)-isomer”. For the same compound, the therapeutic effects result in data set [1] is reported as “superior therapeutic effects”.
As to `CCNCC#CCOC(=O)[C@@](O)(c1ccccc1)C1CCCCC1` [S(+)-isomer of desethyloxybutynin], the cardiovascular depressing activity entry in data set [3] was “serious cardiovascular depressing activity”.
With `CCN(CC)CC#CCOC(=O)[C@@](O)(c1ccccc1)C1CCCCC1` [S(+)-isomer of oxybutynin], in data set [3], the cardiovascular depressing activity entry was “serious cardiovascular depressing activity”.
